Test results published in paper PMC10132805 (Nature Communications, 2023).
Entries after “also recorded” stand apart in the source; their conditions may differ. Where two headings read alike, the source gives them in different places. Residues, ends and D or L forms follow the SMILES beside them. No end group written: not given here. *: point of attachment. FITC = O=C1OC2(c3ccc(O)cc3Oc3cc(O)ccc32)c2ccc(NC(=S)*)cc21

How the values were obtained:
Format in all cases: binding
CLTC NTD = CLTC NTD (Homo sapiens, UniProt Q00610); assay: biochemical
Chain of CLTC NTD (Q00610 2-479 limits assumed): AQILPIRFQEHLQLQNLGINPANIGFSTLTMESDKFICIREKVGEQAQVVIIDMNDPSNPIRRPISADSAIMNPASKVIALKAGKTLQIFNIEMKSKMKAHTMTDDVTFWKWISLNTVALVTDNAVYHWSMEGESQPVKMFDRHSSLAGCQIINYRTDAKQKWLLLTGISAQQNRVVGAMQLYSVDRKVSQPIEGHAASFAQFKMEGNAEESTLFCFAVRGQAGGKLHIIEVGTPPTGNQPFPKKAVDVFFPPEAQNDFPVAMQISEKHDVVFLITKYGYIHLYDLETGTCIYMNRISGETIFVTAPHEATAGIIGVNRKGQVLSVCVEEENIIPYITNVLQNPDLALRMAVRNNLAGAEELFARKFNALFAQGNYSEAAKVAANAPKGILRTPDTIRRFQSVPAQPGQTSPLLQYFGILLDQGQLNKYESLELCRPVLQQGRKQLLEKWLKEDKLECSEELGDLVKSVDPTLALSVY

PABPC1 PABC = PABPC1 PABC (Homo sapiens, UniProt P11940); assay: biochemical
Chain of PABPC1 PABC (P11940 542-619 limits assumed): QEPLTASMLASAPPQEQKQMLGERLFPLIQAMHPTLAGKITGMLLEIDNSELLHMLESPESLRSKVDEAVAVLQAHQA

CEP55 EABR = CEP55 EABR (Homo sapiens, UniProt Q53EZ4); assay: biochemical; conditions: for KD: pH 7.5
Chain of CEP55 EABR (Q53EZ4 160-214 limits assumed): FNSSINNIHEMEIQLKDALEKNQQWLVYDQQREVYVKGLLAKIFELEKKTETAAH

NEDD4 WW2 = NEDD4 WW2 (Homo sapiens, UniProt P46934); assay: biochemical
Chain of NEDD4 WW2 (P46934 767-800 limits assumed): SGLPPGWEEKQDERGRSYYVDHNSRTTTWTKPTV

NEDD4 WW4 = NEDD4 WW4 (Homo sapiens, UniProt P46934); assay: biochemical
Chain of NEDD4 WW4 (P46934 892-925 limits assumed): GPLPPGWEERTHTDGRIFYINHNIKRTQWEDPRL

ALIX V = ALIX V (Homo sapiens, UniProt Q8WUM4); assay: biochemical
Chain of ALIX V (Q8WUM4 360-702): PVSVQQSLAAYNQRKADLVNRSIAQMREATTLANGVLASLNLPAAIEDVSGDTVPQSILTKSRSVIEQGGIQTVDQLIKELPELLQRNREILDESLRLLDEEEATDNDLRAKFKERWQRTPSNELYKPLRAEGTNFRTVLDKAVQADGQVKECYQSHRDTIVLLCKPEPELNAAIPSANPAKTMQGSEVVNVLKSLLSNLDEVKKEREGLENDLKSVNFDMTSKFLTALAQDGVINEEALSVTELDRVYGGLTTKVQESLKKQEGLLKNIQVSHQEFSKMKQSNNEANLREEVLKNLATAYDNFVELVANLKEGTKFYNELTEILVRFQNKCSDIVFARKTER

[1] = tested on: 139 human bait protein domains; conditions: for specificity / RiboVD_mean_counts / RiboVD_count_proportions / peptide_counts_proportion: bait YAP1 WW-2 (P46937, 228-266); for RiboVD_mean_counts: mean sequencing counts over replicate selections; for RiboVD_count_proportions: proportion of counts; for motif_found: motif benchmarking set
AP2M1 MHD = AP2M1 MHD (Homo sapiens, UniProt Q96CW1); assay: biochemical
Chain of AP2M1 MHD (Q96CW1 170-434 limits assumed): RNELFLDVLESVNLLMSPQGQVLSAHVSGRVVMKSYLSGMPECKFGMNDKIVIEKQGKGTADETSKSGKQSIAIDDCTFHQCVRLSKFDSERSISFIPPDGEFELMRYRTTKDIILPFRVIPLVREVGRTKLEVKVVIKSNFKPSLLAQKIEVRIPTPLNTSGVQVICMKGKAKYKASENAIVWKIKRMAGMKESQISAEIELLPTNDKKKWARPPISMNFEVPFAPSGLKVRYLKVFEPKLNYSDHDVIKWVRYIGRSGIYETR

[2] = replicate 1 (first entry of cell)
[3] = replicate 2 (second entry of cell)
[4] = replicate 3 (third entry of cell)

## CC[C@H](C)[C@H](NC(=O)[C@H](CC(C)C)NC(=O)[C@H](CC(N)=O)NC(=O)[C@@H](NC(=O)[C@H](CC(=O)O)NC(=S)Nc1ccc2c(c1)C(=O)OC21c2ccc(O)cc2Oc2cc(O)ccc21)[C@@H](C)O)C(=O)N[C@@H](CCC(=O)O)C(=O)N[C@@H](Cc1ccccc1)C(=O)N[C@@H](CC(=O)O)C(=O)N[C@H](C(=O)N[C@@H](CC(N)=O)C(=O)O)[C@@H](C)O [FITC - ARRB2 370-379 (Human)] ({FITC}-DTNLIEFDTN-OH)
CLTC NTD
  Kd: 26 µM

## CC(C)C[C@H](NC(=O)[C@H](CC(N)=O)NC(=O)[C@H](CO)NC(=O)[C@H](CCCCN)NC(=S)Nc1ccc2c(c1)C(=O)OC21c2ccc(O)cc2Oc2cc(O)ccc21)C(=O)N[C@@H](CC(N)=O)C(=O)N1CCC[C@H]1C(=O)N[C@@H](CC(N)=O)C(=O)N[C@@H](C)C(=O)N[C@@H](CCCCN)C(=O)N[C@@H](CCC(=O)O)C(=O)N[C@@H](Cc1ccccc1)C(=O)N[C@H](C(=O)N1CCC[C@H]1C(=O)NCC(=O)N[C@H](C(=O)N[C@@H](CCCCN)C(=O)O)C(C)C)C(C)C [FITC - PAIP2 108-123 (Human), reference compound] ({FITC}-KSNLNPNAKEFVPGVK-OH)
PABPC1 PABC
  Kd: 0.38 µM

## C[C@H](NC(=O)[C@H](CCC(N)=O)NC(=S)Nc1ccc2c(c1)C(=O)OC21c2ccc(O)cc2Oc2cc(O)ccc21)C(=O)N[C@@H](CCC(N)=O)C(=O)NCC(=O)N1CCC[C@H]1C(=O)N1CCC[C@H]1C(=O)N[C@@H](Cc1ccc(O)cc1)C(=O)N1CCC[C@H]1C(=O)N[C@H](C(=O)N[C@@H](Cc1ccc(O)cc1)C(=O)N1CCC[C@H]1C(=O)NCC(=O)N[C@@H](Cc1ccc(O)cc1)C(=O)O)[C@@H](C)O [FITC - PDCD6IP 797-809 (Human)] ({FITC}-QAQGPPYPTYPGY-OH)
CEP55 EABR
  Kd: 0.31 µM

## C[C@H](NC(=O)[C@H](CO)NC(=O)[C@H](Cc1ccc(O)cc1)NC(=O)[C@@H]1CCCN1C(=O)[C@@H]1CCCN1C(=O)[C@@H]1CCCN1C(=O)[C@H](CO)NC(=O)[C@H](CC(=O)O)NC(=O)[C@@H](NC(=S)Nc1ccc2c(c1)C(=O)OC21c2ccc(O)cc2Oc2cc(O)ccc21)[C@@H](C)O)C(=O)NCC(=O)O [FITC - UL56 46-55 (HHV2)] ({FITC}-TDSPPPYSAG-OH)
NEDD4 WW2
  Kd: 16 µM
NEDD4 WW4
  Kd: 82 µM

## CC(C)C[C@H](NC(=O)[C@H](CO)NC(=O)[C@@H](NC(=O)[C@H](CC(C)C)NC(=O)[C@@H]1CCCN1C(=O)[C@@H]1CCCN1C(=O)[C@H](Cc1ccc(O)cc1)NC(=O)[C@H](CC(C)C)NC(=O)[C@H](CO)NC(=S)Nc1ccc2c(c1)C(=O)OC21c2ccc(O)cc2Oc2cc(O)ccc21)[C@@H](C)O)C(=O)N[C@@H](CCCNC(=N)N)C(=O)O [FITC - gag 493-502 (HIV1)] ({FITC}-SLYPPLTSLR-OH)
ALIX V
  Kd: 2.6 µM

## CC(C)[C@H](NC(=O)[C@H](C)NC(=O)[C@@H](N)[C@@H](C)O)C(=O)N[C@@H](C)C(=O)N1CCC[C@H]1C(=O)N1CCC[C@H]1C(=O)N[C@@H](C)C(=O)N1CCC[C@H]1C(=O)N[C@H](C(=O)N[C@@H](Cc1ccc(O)cc1)C(=O)N[C@@H](CCCNC(=N)N)C(=O)N[C@@H](CO)C(=O)N[C@@H](C)C(=O)N[C@@H](CCC(=O)O)C(=O)N[C@@H](C)C(=O)N[C@@H](Cc1c[nH]cn1)C(=O)O)C(C)C [NP 602-617 (REBOV)]
CEP55 EABR
  Kd: 2.18 µM

## CC(C)C[C@H](NC(=O)[C@H](C)NC(=O)[C@@H]1CCCN1C(=O)[C@@H]1CCCN1C(=O)CNC(=O)[C@H](CO)NC(=O)[C@H](C)NC(=O)[C@@H](N)[C@@H](C)O)C(=O)N[C@@H](CCC(=O)O)C(=O)N[C@@H](Cc1c[nH]c2ccccc12)C(=O)N[C@@H](CO)C(=O)N[C@@H](C)C(=O)N[C@H](C(=O)N[C@@H](CC(N)=O)C(=O)N[C@@H](CCC(=O)O)C(=O)N[C@@H](CCCCN)C(=O)O)[C@@H](C)O [P 177-192 (RABV)]
CEP55 EABR
  Kd: 22.3 µM

## CC(C)C[C@H](NC(=O)CNC(=O)[C@H](C)NC(=O)[C@@H](N)CO)C(=O)N[C@@H](CC(N)=O)C(=O)N1CCC[C@H]1C(=O)N[C@@H](C)C(=O)N[C@@H](C)C(=O)N[C@H](C(=O)N1CCC[C@H]1C(=O)N[C@@H](Cc1ccccc1)C(=O)N[C@H](C(=O)N1CCC[C@H]1C(=O)N[C@@H](CCCCN)C(=O)N[C@@H](CC(N)=O)C(=O)N[C@@H](CCC(N)=O)C(=O)N[C@@H](Cc1ccc(O)cc1)C(=O)O)C(C)C)C(C)C [P/V/C 183-198 (HeV)]
PABPC1 PABC
  affinity compared to the peptide from the endogenous PABP inhibitor PAIP2_108-123: ten-fold weaker

## CC[C@H](C)[C@H](NC(=O)[C@H](CC(=O)O)NC(=O)[C@H](C)NC(=O)[C@H](Cc1ccc(O)cc1)NC(=O)[C@H](C)NC(=O)[C@@H]1CCCN1C(=O)[C@@H]1CCCN1C(=O)[C@H](C)NC(=O)[C@@H](NC(=O)[C@@H]1CCCN1C(=O)[C@@H](NC(=O)[C@@H](NC(=O)[C@@H](NC(=O)[C@H](CCCNC(=N)N)NC(=O)[C@H](CCCNC(=N)N)NC(=O)[C@@H](N)CCSC)C(C)C)[C@@H](C)O)C(C)C)[C@@H](C)O)C(=O)NCC(=O)N[C@@H](Cc1ccc(O)cc1)C(=O)N1CCC[C@H]1C(=O)N[C@@H](CCSC)C(=O)O [VP40 1-20 (SEBOV)]
NEDD4 WW2
  Kd: 22 µM
NEDD4 WW4
  Kd: 68 µM

## AELNPPPYNHSYESLH
[1]
  specificity: 0.98
  RiboVD_mean_counts: 1834
  RiboVD_count_proportions: 0.03738
[1]; [2]
  peptide_counts_proportion: 0.005
[1]; [3]
  peptide_counts_proportion: 0.079
[1]; [4]
  peptide_counts_proportion: 0.028

## EPDQEPPPPYQEQVPV [RNF11 31-56 (Human)]
NEDD4 WW2
  Kd: 13 µM
NEDD4 WW4
  Kd: 44 µM

## EPDQEPPPPYQEQVPVPVYHPTPSQ [RNF11 31-65 (Human)]
NEDD4 WW2
  Kd: 15 µM
NEDD4 WW4
  Kd: 35 µM

## GLRRTDLVDFVNGTVDY [RdRp 1840-1855 (SVV)]
CLTC NTD; pH 7.5
  KD: Low affinity binder

## LAVGPPSLNYIPPVLQ [TEX14 792-807 (Human)]
CEP55 EABR
  Kd: ~0.3 µM
  KD: same order or tighter as the probe; also recorded: Due to the limitatons of our experimental setup we could not calculate the KD values for this peptide, however our experiments suggest very high affinity (mid to low nanomolar)

## LPPPEYVPLHEISSKG
[1]
  specificity: 0.991
  RiboVD_mean_counts: 729
  RiboVD_count_proportions: 0.02141
[1]; [2]
  peptide_counts_proportion: 0.029
[1]; [3]
  peptide_counts_proportion: 0.006
[1]; [4]
  peptide_counts_proportion: 0.029

## MSFGSF [P03317_1835_1840]
[1]; bait G3BP2_NTF2_1_Q9UN86_1_139
  motif_found: TRUE

## MSSLYPSLEDLKVDQA [SDCBP2 1-16 (Human)]
ALIX V
  Kd: 0.29 µM

## NSMLNPNAVPFQPSPQY [N 2-17 (BeV)]
PABPC1 PABC
  affinity compared to the peptide from the endogenous PABP inhibitor PAIP2_108-123: ten-fold weaker

## P36328_1787_1804
[1]; bait CD2AP_SH3_1_Q9Y5K6_2_58
  motif_found: TRUE

## PPPVLYPNLAELENYM [SDCBP2 39-54 (Human)]
ALIX V
  Kd: 2.1 µM

## PTDSNFYRALMDEEDM [EGFR 992-1007 (Human)]
AP2M1 MHD
  Kd: 2.4 µM

## PVPAPRKPTPAPRTAFR [P08411_1764_1780]
[1]; bait CD2AP_SH3_1_Q9Y5K6_2_58
  motif_found: TRUE

## QAQGPPYPTYPGYPGY [PDCD6IP 797-812 (Human)]
CEP55 EABR
  Kd: ~0.3 µM
  KD: same order or tighter as the probe; also recorded: Due to the limitatons of our experimental setup we could not calculate the KD values for this peptide, however our experiments suggest very high affinity (mid to low nanomolar)

## TAPPAYADIGYPMSML
[1]
  specificity: 0.889
  RiboVD_mean_counts: 4550
  RiboVD_count_proportions: 0.1419
[1]; [2]
  peptide_counts_proportion: 0.002
[1]; [3]
  peptide_counts_proportion: 0.008
[1]; [4]
  peptide_counts_proportion: 0.416

## VDEEKGLYPNLKLTEPTAPMIHNYM [Nsp4 118-142 (BAV)]
ALIX V
  Kd: 160 µM

## VPVDTNLIEFDTNYAT [ARRB2 367-382 (Human)]
CLTC NTD
  Kd: 40 µM

## VTVPTAPPAYADIGYP
[1]
  specificity: 0.918
  RiboVD_mean_counts: 10451.3
  RiboVD_count_proportions: 0.1499
[1]; [2]
  peptide_counts_proportion: 0.298
[1]; [3]
  peptide_counts_proportion: 0.131
[1]; [4]
  peptide_counts_proportion: 0.021
